# Legend:
# [1] = tested on: blood sugar levels; experiment: Effect of controlling increase of blood sugar levels in sucrose-loaded rats; assay type: in vivo, rats of the SD series; settings: Rattus norvegicus, po, 3 h; 2 g/Kg sucrose and 5 mg/Kg test compound orally; ΔAUC over 180 minutes; male SD rats; read-out: Blood Level Increase Inhibition Ratio (%)
# Protocol: [Effect of Controlling Increase of Blood Sugar Levels]
# Five-week-old male rats of the SD series are divided into groups, each consisting of 4 rats, and 2 g/Kg of sucrose and 5 mg/Kg of the test compound are orally administered. Blood is collected from the tail veins at predetermined intervals over a period of 180 minutes from the point of administration and the blood level values are measured. The area (ΔAUC) below the time-blood level increase curve is determined. The blood level increase inhibition ratio of the test compound is calculated from the basal value obtained in the group to which water alone has been administered and the control value obtained in the group to which sucrose alone has been administered according to the following formula: [formula]
# [2] = target: T1, α-1,4-glucanglucohydrolase (glucoamylase) (Rhizopus arrhizus, UniProt P07683); experiment: Inhibition of α-1,4-glucanglucohydrolase (glucoamylase), soluble starch substrate; assay type: biochemical; settings: read-out: percent inhibition at parenthesized concentration; for inhibition at 200 µg/mL: at 200 μg/ml (printed >200 μg/ml)
# T1 sequence (P07683 26-604): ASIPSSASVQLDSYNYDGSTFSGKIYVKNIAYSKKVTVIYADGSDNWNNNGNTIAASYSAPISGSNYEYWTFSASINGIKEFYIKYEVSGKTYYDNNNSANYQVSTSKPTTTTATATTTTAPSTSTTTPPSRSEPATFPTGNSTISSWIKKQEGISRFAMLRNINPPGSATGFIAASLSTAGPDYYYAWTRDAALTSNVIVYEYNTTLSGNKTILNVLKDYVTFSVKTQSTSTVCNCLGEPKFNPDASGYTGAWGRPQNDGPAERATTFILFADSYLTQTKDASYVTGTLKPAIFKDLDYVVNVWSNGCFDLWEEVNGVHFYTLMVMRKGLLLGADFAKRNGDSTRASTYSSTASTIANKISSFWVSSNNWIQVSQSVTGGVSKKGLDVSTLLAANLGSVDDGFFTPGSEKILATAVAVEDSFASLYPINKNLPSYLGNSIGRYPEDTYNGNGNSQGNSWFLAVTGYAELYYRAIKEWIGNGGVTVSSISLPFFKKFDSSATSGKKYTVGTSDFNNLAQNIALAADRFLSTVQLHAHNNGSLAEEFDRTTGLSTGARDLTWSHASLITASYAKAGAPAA
# Protocol: Moranoline, N-lower-alkylmoranolines, oligoglycosylmoranolines and N-lower-alkyloligoglucosylmoranolines inhibit the activity of α-1,4-glucanglucohydrolase. The inhibition is determined according to the following method.
# Glucoamylase (crystal) derived from Rhizopus nivens (supplied by Seikagaku Kogyo K. K.) is dissolved in distilled water so that the concentration is 50 μg/ml and the enzyme is used in the form of the so obtained solution.
# Soluble starch is dissolved in a buffer solution at a high temperature so that the concentration is 1.4%, and the solution is cooled to room temperature and used.
# 0.1 M phosphate buffer solution (pH=5.7)
# The starting liquid is incubated at 40° C. for 10 minutes, and 1 ml of a 0.3 N solution of Ba(OH)2 and 1 ml of a 5% solution of ZnSO4 are added. Centifugal separation is conducted under a load of 2000×g for 10 minutes, and 30 μl of the supernatant is sampled and 3 ml of a glucose color reagent (supplied by Boelunger Mannheim Co.; new blood sugar test) was added to the supernatant. The mixture was allowed to stand at room temperature for 35 minutes and the absorbance at 420 nm is measured. The percent inhibition is calculated according to the following formula: [formula] wherein C stands for the absorbance of the control, T stands for the absorbance of the test sample, B' stands for the absorbance of the blank (I), and B stands for the absorbance of the blank (II).
# The percent inhibition is also determined in respect of dilutions, and the concentration (IC50) providing 50% inhibition is found. In Table 4, the percent inhibition obtained at a parenthesized concentration is shown when the inhibition is low.
# [3] = target: T2, α-1,4-glucanglucohydrolase (Rhizopus arrhizus, UniProt P07683); experiment: Decomposition of the substance by α-1,4-glucanglucohydrolase (glucose release); assay type: biochemical
# T2 sequence (P07683 26-604): T1 sequence (P07683 26-604)
# Source text: Practically, reactions of the respective stages are advanced on a mixture of compounds differing in the glucose number (m). Accordingly, in order to accumulate intended G-MR in the liquid reaction mixture, it is indispensable that rate constants should be sufficiently high but the rate constant k1 should be sufficiently low. FIG. 4 clarifies this point. FIG. 4 will now be explained. A predetermined amount of N-methyloligoglycosylmoranoline is adsorbed on 1 g of Dowex 50W×2 (H^+) in an Erlenmeyer flask having a capacity of 125 ml, and they are suspended in 50 ml of distilled water and 10 mg of α-1,4-glucanglucohydrolase is added to the suspension. Incubation is carried out at 40° C., and 500 μl of the liquid is sampled at predetermined intervals and the amount of glucose is determined. When maltose is used as the substrate, it is mixed with 1 g of Dowex 50W×2 (H^+) and in this state, incubation is carried out at 40° C.
# 1 ml of 0.3 N Ba(OH)2 and 1 ml of 5% ZnSO4 are added to 500 μl of the reaction mixture liquid and centifugal separation is carried out under a load of 2000 g for 10 minutes. 30 μl of the supernatant is taken and 3 ml of a commercially available glucose color reagent (manufactured by Boehunger Mannheim Co.; new blood sugar test) is added to the sampled supernatant. The mixture is sufficiently stirred and allowed to stand at room temperature for 35 minutes and the absorbance at 420 nm is measured. Separately, a glucose reference reagent (9.1 mg/dl) is similarly treated and the absorbance at 420 nm is measured. Based on these measurements, the amount of glucose formed in the reaction mixture liquid is determined.
# About 22 units/mg of α-1,4-glucanglucohydrolase (crystal) derived from Rhizopus niveus (supplied by Seikagaku Kogyo K.K.)
# The reaction time is plotted on the abscissa and the ratio of decomposition based on complete decomposition of glucose is plotted on the ordinate. […] After determination of the amount of glucose, the reaction liquid is filtered and the ion exchange resin (Dowex 50W×2) is collected, washed with water sufficiently and eluted with 0.5 N aqueous ammonia. The eluate is concentrated under reduced pressure and dried to the solid. The solid is dissolved in distilled water and subjected to high speed liquid chromatography (Model ALC/GPC-244 supplied by Waters Co., μ-Bondapak NH2 column, acetonitrile/water=70/30, 1.5 cc/min), and the reaction product is identified by a chromatopac Model C-R1A supplied by Shimadzu Seisakusho K. K. The ratios of formation of N-methylmoranoline are […] in case of 4-(α-D-glucosyl)-N-methylmoranoline, 4-(α-D-amltosyl)-N-methylmoranoline, 4-(α-D-maltotriosyl)-N-methylmoranoline and 4-(α-D-maltotetraosyl)-N-methylmoranoline, respectively. […]
Compound,inhibition in vivo at 5 mg/kg [1],other results
CCN1C[C@H](O)[C@@H](O)[C@H](O[C@H]2O[C@H](CO)[C@@H](O)[C@H](O)[C@H]2O)[C@H]1CO [4-(α-D-glucosyl)-N-ethylmoranoline],22%,inhibition at 800 µg/mL ([2]; at 800 μg/ml (printed >800 μg/ml)): 38%
CN1C[C@H](O)[C@@H](O)[C@H](O[C@H]2O[C@H](CO)[C@@H](O)[C@H](O)[C@H]2O)[C@H]1CO [4-(α-D-glucosyl)-N-methylmoranoline],56%,"decomposition by α-1,4-glucanglucohydrolase (in words) ([3]; qualitative statement, FIG. 4): extremely small"
CCCN1C[C@H](O)[C@@H](O)[C@H](O[C@H]2O[C@H](CO)[C@@H](O)[C@H](O)[C@H]2O)[C@H]1CO [4-(α-D-glucosyl)-N-propylmoranoline],24%,–
OC[C@H]1NC[C@H](O)[C@@H](O)[C@@H]1O[C@H]1O[C@H](CO)[C@@H](O)[C@H](O)[C@H]1O [4-(α-D-glucosyl)-moranoline],44%,"inhibition at 200 µg/mL [2]: 15%; decomposition by α-1,4-glucanglucohydrolase (in words) ([3]; qualitative statement, FIG. 4): hardly decomposed"
CN1C[C@H](O)[C@@H](O)[C@H](O[C@H]2O[C@H](CO)[C@@H](O[C@H]3O[C@H](CO)[C@@H](O[C@H]4O[C@H](CO)[C@@H](O[C@H]5O[C@H](CO)[C@@H](O[C@H]6O[C@H](CO)[C@@H](O)[C@H](O)[C@H]6O)[C@H](O)[C@H]5O)[C@H](O)[C@H]4O)[C@H](O)[C@H]3O)[C@H](O)[C@H]2O)[C@H]1CO [4-(α-D-maltopentaosyl)-N-methylmoranoline],23%,–
CCN1C[C@H](O)[C@@H](O)[C@H](O[C@H]2O[C@H](CO)[C@@H](O[C@H]3O[C@H](CO)[C@@H](O)[C@H](O)[C@H]3O)[C@H](O)[C@H]2O)[C@H]1CO [4-(α-D-maltosyl)-N-ethylmoranoline],35%,–
CN1C[C@H](O)[C@@H](O)[C@H](O[C@H]2O[C@H](CO)[C@@H](O[C@H]3O[C@H](CO)[C@@H](O)[C@H](O)[C@H]3O)[C@H](O)[C@H]2O)[C@H]1CO [4-(α-D-maltosyl)-N-methylmoranoline],62%,–
OC[C@H]1NC[C@H](O)[C@@H](O)[C@@H]1O[C@H]1O[C@H](CO)[C@@H](O[C@H]2O[C@H](CO)[C@@H](O)[C@H](O)[C@H]2O)[C@H](O)[C@H]1O [4-(α-D-maltosyl)-moranoline],35%,inhibition at 200 µg/mL [2]: 0%
CN1C[C@H](O)[C@@H](O)[C@H](O[C@H]2O[C@H](CO)[C@@H](O[C@H]3O[C@H](CO)[C@@H](O[C@H]4O[C@H](CO)[C@@H](O[C@H]5O[C@H](CO)[C@@H](O)[C@H](O)[C@H]5O)[C@H](O)[C@H]4O)[C@H](O)[C@H]3O)[C@H](O)[C@H]2O)[C@H]1CO [4-(α-D-maltotetraosyl)-N-methylmoranoline],25%,–
OC[C@H]1NC[C@H](O)[C@@H](O)[C@@H]1O[C@H]1O[C@H](CO)[C@@H](O[C@H]2O[C@H](CO)[C@@H](O[C@H]3O[C@H](CO)[C@@H](O[C@H]4O[C@H](CO)[C@@H](O)[C@H](O)[C@H]4O)[C@H](O)[C@H]3O)[C@H](O)[C@H]2O)[C@H](O)[C@H]1O [4-(α-D-maltotetraosyl)-moranoline],56%,inhibition at 200 µg/mL [2]: 0%
CN1C[C@H](O)[C@@H](O)[C@H](O[C@H]2O[C@H](CO)[C@@H](O[C@H]3O[C@H](CO)[C@@H](O[C@H]4O[C@H](CO)[C@@H](O)[C@H](O)[C@H]4O)[C@H](O)[C@H]3O)[C@H](O)[C@H]2O)[C@H]1CO [4-(α-D-maltotriosyl)-N-methylmoranoline],29%,–
OC[C@H]1NC[C@H](O)[C@@H](O)[C@@H]1O[C@H]1O[C@H](CO)[C@@H](O[C@H]2O[C@H](CO)[C@@H](O[C@H]3O[C@H](CO)[C@@H](O)[C@H](O)[C@H]3O)[C@H](O)[C@H]2O)[C@H](O)[C@H]1O [4-(α-D-maltotriosyl)-moranoline],31%,inhibition at 200 µg/mL [2]: 0%
"OC[C@H]1O[C@H](O[C@H]2[C@H](O)[C@@H](O)C(O)O[C@@H]2CO)[C@H](O)[C@@H](O)[C@@H]1O (stereo partly shown) [maltose, reference compound]",–,"decomposition by α-1,4-glucanglucohydrolase (in words) ([3]; in 1 hour, 40° C., mixed with Dowex 50W×2 (H+)): decomposed substantially completely; decomposition by α-1,4-glucanglucohydrolase (in words) ([3]; qualitative statement, FIG. 4): promptly decomposed to glucose"
"OC[C@H]1NC[C@H](O)[C@@H](O)[C@@H]1O [moranoline, Moranoline]",19%,–
